Experimental data as given in patent US20110171261A1, “IMMUNOGENIC COMPOSITION” (priority 2008, published 2011).

How the values were obtained:
[1] = test system: PPD-reactive IFN-γ-secreting cells; assay: T cell response (IFN-γ ELISPOT and CBA) in mice after MVA85A vaccination; type: in vivo, BALB/c mice; details: i.m., MVA85A plus ~2.5 μM antagonist, 6 days post vaccination, splenocytes, 20 μg/ml PPD; for frequency of PPD-reactive IFN-γ-secreting cells (ELISPOT): vs DMSO; for production of IFN-γ in PPD-stimulated cultures (supernatant, CBA): 18 h
CXCR4 = target: T1, CXCR4 (Homo sapiens, UniProt P61073); assay: CXCL12-mediated (CXCR4) chemotaxis of CCRF-CEM cells, specificity; type: cell-based; details: 3 nM CXCL12; 2 μM CCR4 antagonists (1000 times higher than IC50); n=2
T1 construct: Expression of chemokine receptors CCR4 and CXCR4 by CCRF-CEM cells; endogenous in cells; host or cells: CCRF-CEM
Method: FIG. 2: Assessment of the specificity of CCR4 antagonists. (A) Expression of chemokine receptors CCR4 and CXCR4 by CCRF-CEM cells.
Cell migration was measured by chemotaxis through a 5 μm pore polycarbonate filter in 24-well transwell chambers (Costar, Cambridge, Mass.). Chemokines (R&D systems) were placed in lower chambers in 600 μl RPMI/1% FCS medium and cells were placed in upper chambers in 100 μl medium. After 2 h incubation at 37° C., cells in the lower chamber were recovered and counted with a FACSCalibur (Becton Dickinson, Mountain View, Calif.). Preliminary chemokine titration experiments established optimal doses for chemotaxis: (1) for CCRF-CEM cells, 6 nM CCL22 and 3 nM CCL17 or CXCL12; (2) for Tregs and Th2 cells, 1.2 nM CCL22 or CCL17. To assess CCR4 antagonism, candidate antagonist compounds (10 nM) were mixed directly with chemokines as indicated. Percent inhibition of chemotaxis by CCR4 antagonists was calculated in relation to controls treated with solvent (DMSO) alone as follows: ([no. cells migrated in the presence of DMSO—no. cells migrated in the presence of antagonist]/no. cells migrated in the presence of DMSO)×100. To measure IC50 values, graded doses of antagonists were added to a constant concentration of CCL22.
CCRF-CEM also expresses another chemokine receptor, CXCR4 (FIG. 2A), which allowed the specificity of the CCR4 antagonists to be tested. With the exception of one antagonist, the compounds had no effect on either CXCR4-mediated migration (FIG. 2B) or cell viability (data not shown), even at concentrations 1000 times higher than their IC50 values (˜2 μM)

[2] = test system: CD4+CD25+ regulatory T cells; assay: Cell viability of Tregs; type: cell-based, human
CCR4 = target: T2, CCR4 (Mus musculus, UniProt P51680); assay: CCR4-mediated migration of mouse cells in vitro; type: cell-based; details: data not shown
T2 construct: endogenous in cells
T2 sequence (P51680 1-360): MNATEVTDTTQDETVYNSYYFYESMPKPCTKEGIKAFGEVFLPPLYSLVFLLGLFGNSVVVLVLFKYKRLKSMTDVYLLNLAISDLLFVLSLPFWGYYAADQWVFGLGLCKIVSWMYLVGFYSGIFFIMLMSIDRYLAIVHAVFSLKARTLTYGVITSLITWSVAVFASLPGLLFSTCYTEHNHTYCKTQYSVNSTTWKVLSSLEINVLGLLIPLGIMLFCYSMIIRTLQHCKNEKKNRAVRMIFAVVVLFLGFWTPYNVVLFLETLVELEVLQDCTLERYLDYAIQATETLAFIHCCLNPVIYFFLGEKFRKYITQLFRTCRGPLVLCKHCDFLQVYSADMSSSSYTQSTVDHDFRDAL

[3] = test system: antibody response to the HBsAg; assay: ELISA of sera of mice immunised with HBsAg in SP50 adjuvant at different concentrations (Example 6); type: in vivo, Balb/c mice; details: s.c., 0.5 micrograms HBsAg with SP50 at 1 millimolar, 100 micromolar or 10 micromolar, boost day 14, bled 14 days later, all concentrations
Source text: FIG. 7: CCR4 antagonist SP50 (Compound VIII—AF-399/42016530—4-(1-benzofuran-2-ylcarbonyl)-1-[5-(benzylsulfanyl)-1,3,4-thiadiazol-2-yl]-3-hydroxy-5-(2-thienyl)-1,5-dihydro-2H-pyrrol-2-one. MW: 531.64. Formula: C26H17N3O4S3) enhances the immunogenicity of a vaccine in vivo. The graph in FIG. 7 depicts the results of an ELISA assay of sera of mice immunised with HBsAg in different concentrations of SP50 adjuvant or of HBsAg in DMSO (negative control) or of HBsAG in the commercially used vaccine composition Engerix™. […] Each line represents the mean of a group of 4 mice.
6 week old female Balb/c mice were used, and immunised with a recombinant Hepatitis B surface antigen (HBsAg) from Biospacific, 598 Horton St no 225, Emeryville Calif. 94608, Catalogue number J44050228 lot number 4475.
Groups of 4 mice were given 0.5 micrograms of HBsAg subcutaneously in 25 microlitres of saline with an equal volume of SP50 at concentrations of 1 millimolar, 100 micromolar or 10 micromolar. Controls received 0.5 micrograms of HBsAg plus 25 microlitres of DMSO (the vehicle used to dissolve the SP50). A second control group received a dose of the alum-adjuvanted commercial Hepatitis B vaccine “Engerix” containing 0.5 micrograms of HBsAg. 14 days later the mice were boosted in an identical fashion and they were bled out a further 14 days later. […]

[4] = test system: HBsAg specific antibodies; assay: Anti-HBsAg IgG ELISA after rHBsAg vaccination of mice; type: in vivo, BALB/c mice; details: 14 days after second vaccination

T1 sequence (P61073 whole entry): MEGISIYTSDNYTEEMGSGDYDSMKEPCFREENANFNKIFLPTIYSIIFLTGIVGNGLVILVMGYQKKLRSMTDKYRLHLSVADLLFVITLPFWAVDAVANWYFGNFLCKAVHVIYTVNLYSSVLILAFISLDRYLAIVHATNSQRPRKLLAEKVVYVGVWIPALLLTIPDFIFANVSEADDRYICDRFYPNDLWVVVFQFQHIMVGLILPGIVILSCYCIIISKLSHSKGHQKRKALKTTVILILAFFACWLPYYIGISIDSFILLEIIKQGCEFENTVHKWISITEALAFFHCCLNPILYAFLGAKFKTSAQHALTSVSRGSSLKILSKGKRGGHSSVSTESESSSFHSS

Row | SMILES | frequency of PPD-reactive IFN-γ-secreting cells (ELISPOT) [1] | production of IFN-γ in PPD-stimulated cultures (supernatant, CBA) [1] | effect on CXCL12-mediated chemotaxis (CXCR4-mediated migration) of CCRF-CEM cells (CXCR4) | effect on cell viability [2] | inhibition of CCR4-mediated migration of mouse cells in vitro (CCR4) | antibody response to the HBsAg (ELISA of sera) [3] | IgG subclass of anti-HBsAg IgG response [4] | titer of HBsAg specific antibodies (IgG, ELISA) ([4]; s.c., rHBsAg plus compound (~2.5 μM), vs DMSO)
1 | O=C(C1=C(O)C(=O)N(c2nnc(SCc3ccc(Cl)cc3)s2)C1c1cccs1)c1cc2ccccc2o1 (stereo not shown) [(V)] | significantly enhanced | significantly greater production | do not inhibit | None of the compounds affected cell viability | inhibit | – | – | –
2 | CCc1ccc(C2C(C(=O)c3cc4ccccc4o3)=C(O)C(=O)N2c2nnc(SCc3ccccc3F)s2)cc1 (stereo not shown) [(VI)] | – | – | do not inhibit | None of the compounds affected cell viability | – | – | – | –
3 | O=C(CSc1nc(-c2ccccc2)c(-c2ccccc2)o1)Nc1ccc(S(=O)(=O)Nc2nccs2)cc1 [(XI)] | – | – | do not inhibit | None of the compounds affected cell viability | – | – | – | –
4 | O=C(C1=C(O)C(=O)N(c2nnc(SCc3ccccc3Cl)s2)C1c1ccc(Cl)c(Cl)c1)c1cc2ccccc2o1 (stereo not shown) [(III)] | – | – | do not inhibit | None of the compounds affected cell viability | – | – | – | –
5 | O=C(C1=C(O)C(=O)N(c2nnc(SCc3ccccc3)s2)C1c1cccs1)c1cc2ccccc2o1 (stereo not shown) [compound (VIII), 4-(1-benzofuran-2-ylcarbonyl)-1-[5-(benzylsulfanyl)-1,3,4-thiadiazol-2-yl]-3-hydroxy-5-(2-thienyl)-1,5-dihydro-2H-pyrrol-2-one] | significantly enhanced | significantly greater production | do not inhibit | None of the compounds affected cell viability | inhibit | greater than that to Engerix™ | predominantly of the IgG1 subtype | significantly enhanced the titer of HBsAg specific antibodies to a level similar to that of Engerix-B
